Source: publication PMC8379256, “A xanthene derivative, DS20060511, attenuates glucose intolerance by inducing skeletal muscle-specific GLUT4 translocation in mice” (Communications Biology, 2021)
Where “and” joins values, the source holds several entries; their conditions need not be identical. Identical values can stand only once.

Assays:
C57BL/6 mice [1] = test: Indirect calorimetry under the oral glucose tolerance test; type: in vivo, mouse; conditions: oral GTT; 30 mg/kg po; 1 h after glucose load
Source text: In the revised manuscript, we have added references
154–156. We think that the reference, PMID: 23349504, is not suitable for this context, because this […]
What is the faith of the glucose in response to DS20060511? Is it oxidized or stored as glycogen? Does it produce excessive oxidative stress? Please include such important measures.
Response: Thank you for your question. We agree that such information is important. In the revised manuscript, we have added data on the glycogen contents of the skeletal muscle, heart, and liver after 28 days of DS20060511 treatment in db/db mice, in Supplementary Fig. 5c and lines 241–243, as […]
liver, or in the glycogen contents of the muscle, heart, and liver (Supplementary Fig. 5b, c).” The […]
oxidized, and not stored as glycogen. We, however, regret not assessing the level of oxidative stress in the skeletal muscles of the db/db mice. To determine whether DS20060511 treatment might produce excessive oxidative stress, the data of indirect calorimetry under GTT in B6 mice may be […]
produce excessive oxidative stress, at least at the whole-body level in the normal state.
Indirect calorimetry under the oral glucose tolerance test. C57BL/6 mice (n = 6) that had been denied access to food overnight received oral administration of 30 […]
glucose load (1.5 g kg-1). Indirect calorimetry was performed for 1 h after the glucose load. […]

[2] = test system: isolated soleus and EDL muscles; test: [3H]-2-DG uptake in isolated soleus and EDL muscles from WT and GLUT4KO mice; set-up: species or system mouse; conditions: for 2DOG Trn / IC 2DOG / 2-DG uptake Raio: DS20060511 10μM, individual muscles; for 2DOG Trn / IC 2DOG: 2DG 1 mM, incubation time 10 min; for 2-DG uptake Raio: ratio to vehicle
Protocol: Fig. 3 The glucose-lowering effect of DS20060511 is totally dependent on GLUT4. a Blood glucose and plasma insulin levels during oral GTT in wild-type (WT, n = 5) and GLUT4 knockout (KO, n = 6) mice. Mice received oral administration of vehicle or DS20060511 (30 mg kg^−1), 15 min prior to the glucose administration (1.5 g kg^−1). Values shown are means ± SEM. *P < 0.05, **P < 0.01 vs. vehicle by the t-test. b DS20060511-stimulated [^3H]-2-DG uptake in the isolated soleus and EDL muscles excised from WT (n = 6) and KO (n = 6) mice. Values shown are means ± SEM. **P < 0.01 vs. vehicle by the t-test.
The soleus or EDL muscle was removed from anesthetized mice (isoflurane anesthesia) that had been denied access to food overnight, and incubated with oxygenated (95% O2/5% CO2) Krebs-Henseleit Bicarbonate (KHB) buffer (118.1 mM NaCl, 4.7 mM KCl, 1.1 mM KH2PO4, 1.2 mM MgSO4, 2.5 mM CaCl2, and 25 mM NaHCO3, pH7.4) in the presence of 11.1 mM glucose at 37 °C. The muscle specimens were then treated with the indicated concentrations of the compounds in KHB buffer containing 11.1 mM glucose and 8 mM mannitol for 10 min at 37 °C. Thereafter, the muscles were rinsed with KHB buffer containing 8 mM mannitol and the compounds for 5 min at 37 °C. Lastly, the muscles were treated with the compounds in KHB buffer containing 1 mM 2-DG (with 0.3 μCi mL^−1 [^3H]-2-DG) and 8 mM mannitol (with 0.03 μCi mL^−1 [^14C]-mannitol) for 10 min at 37 °C. After the muscle specimens were washed, they were lysed with 1 N NaOH and neutralized with 1 N HCl. The ^14C- and ^3H-specific activities were counted with a liquid scintillation counter. The specific uptake of 2-DG was calculated by subtracting the nonspecific uptake of mannitol from the total 2-DG uptake. To investigate the effects of muscle contraction, muscle contraction was induced by electrical stimulation with 5 Hz (1 ms pulse duration, 100 V) for 10 min (SEN-5201, Nihon Koden, Tokyo, Japan).

WT and eNOSKO mice = test: Oral GTT in wild-type and eNOS-knockout mice; type: in vivo, mouse; conditions: Glucose tolerance test, 30 mg/kg, individual animals
C57BL/6 mice [3] = test: In vivo [3H]-2-DG uptake into tissues during intraperitoneal GTT; set-up: species or system mouse; conditions: for count (dpm) 2DG / count (dpm) Total / dpm/mg 2DG / dpm/mg 2DGP / dpm/mg Total / Ratio: 30 mg/kg; for Ratio: 2DGP relative to vehicle
Protocol: Tissue glucose uptake was examined by measuring the uptake of [^3H]-2-DG during an intraperitoneal GTT as described previously[46],[47], with minor modifications. Mice that had been denied access to food overnight received oral administration of 30 mg kg^−1 of DS20060511 or vehicle 15 min prior to the glucose load. The mice then received intraperitoneal glucose administration (1 g kg^−1 containing 100 μCi kg^−1 [^3H]-2-DG as tracer), followed by quick removal of the tissues 60 min later. Tissue samples were homogenized in 0.5% perchloric acid and centrifuged, and the supernatants were neutralized with KOH. One aliquot of the supernatants was used for measuring the total radioactivity ([^3H]-2-DG and [^3H]-2-DG 6-phosphate ([^3H]-2-DGP)). A second aliquot of the supernatants was treated with 1 N Ba(OH)2 and 1 N ZnSO4 to remove [^3H]-2-DGP, and the [^3H]-2-DG count was measured. 2-DG uptake into the tissue, which is rapidly metabolized to 2-DGP in the tissue, was estimated by subtracting the count of [^3H]-2-DG from the total count. ^3H-specific activities were counted using a liquid scintillation counter.

## COc1ccc2c(C)c(C(=O)O)ccc2c1C1C2=C(CC(C)(C)CC2=O)OC2=C1C(=O)CC(C)(C)C2 [DS20060511]
C57BL/6 mice [1]
  VO2: no change in the VO2
[2]; GLUT4KO mice
  2-DG uptake by isolated soleus and EDL muscles (in words): no such increase in muscle uptake was observed
[2]; GLUT4KO, isolated EDL
  2DOG Trn: 219 nmol/ml and 21.9 µM/min and 229 nmol/ml and 22.9 µM/min and 220 nmol/ml and 22.0 µM/min and 239 nmol/ml and 23.9 µM/min and 247 nmol/ml and 24.7 µM/min
  IC 2DOG: 136 nmol/g and 155 nmol/g and 142 nmol/g and 149 nmol/g and 143 nmol/g and 156 nmol/g
  2-DG uptake Raio: 1.02 and 1.07 and 1.03 and 1.11 and 1.15
[2]; GLUT4KO, isolated Soleus
  2DOG Trn: 272 nmol/ml and 27.2 µM/min and 411 nmol/ml and 41.1 µM/min and 553 nmol/ml and 55.3 µM/min and 323 nmol/ml and 32.3 µM/min and 280 nmol/ml and 28.0 µM/min and 475 nmol/ml and 47.5 µM/min
  IC 2DOG: 151 nmol/g and 223 nmol/g and 272 nmol/g and 155 nmol/g and 138 nmol/g and 244 nmol/g
  2-DG uptake Raio: 0.86 and 1.30 and 1.75 and 1.02 and 0.89 and 1.50
[2]; WT mice
  2-DG uptake by isolated soleus and EDL muscles (in words): significantly increased the 2-DG uptake
[2]; Wildtype, isolated EDL
  2DOG Trn: 620 nmol/ml and 62.0 µM/min and 476 nmol/ml and 47.6 µM/min and 591 nmol/ml and 59.1 µM/min and 474 nmol/ml and 47.4 µM/min and 359 nmol/ml and 35.9 µM/min and 351 nmol/ml and 35.1 µM/min
  IC 2DOG: 373 nmol/g and 286 nmol/g and 340 nmol/g and 291 nmol/g and 235 nmol/g and 229 nmol/g
  2-DG uptake Raio: 2.47 and 1.90 and 2.36 and 2.12 and 1.61 and 1.57
[2]; Wildtype, isolated Soleus
  2DOG Trn: 632 nmol/ml and 63.2 µM/min and 599 nmol/ml and 59.9 µM/min and 719 nmol/ml and 71.9 µM/min and 638 nmol/ml and 63.8 µM/min and 552 nmol/ml and 55.2 µM/min and 582 nmol/ml and 58.2 µM/min
  IC 2DOG: 343 nmol/g and 302 nmol/g and 363 nmol/g and 327 nmol/g and 293 nmol/g and 321 nmol/g
  2-DG uptake Raio: 1.76 and 1.67 and 2.01 and 2.02 and 1.75 and 1.84
WT and eNOSKO mice; 0 min
  Blood glucose: 77 mg/dL
WT and eNOSKO mice; -15 min
  Blood glucose: 65 mg/dL
C57BL/6 mice [3]; Gastro.
  count (dpm) 2DG: 405 dpm and 366 dpm and 390 dpm
  count (dpm) Total: 1890 dpm and 1397 dpm and 1924 dpm
  dpm/mg 2DG: 63.3 dpm/mg and 57.2 dpm/mg and 60.9 dpm/mg
  dpm/mg 2DGP: 54.8 dpm/mg and 30.1 dpm/mg and 59.3 dpm/mg
  dpm/mg Total: 118.1 dpm/mg and 87.3 dpm/mg and 120.3 dpm/mg
  Ratio: 4.35 and 2.39 and 4.70
C57BL/6 mice [3]; Heart
  count (dpm) 2DG: 398 dpm and 423 dpm and 382 dpm
  count (dpm) Total: 1218 dpm and 1277 dpm and 1201 dpm
  dpm/mg 2DG: 62.2 dpm/mg and 66.1 dpm/mg and 59.7 dpm/mg
  dpm/mg 2DGP: 39.3 dpm/mg and 40.3 dpm/mg and 40.4 dpm/mg
  dpm/mg Total: 101.5 dpm/mg and 106.4 dpm/mg and 100.1 dpm/mg
  Ratio: 0.90 and 0.93
C57BL/6 mice [3]; Soleus
  count (dpm) 2DG: 214 dpm and 169 dpm and 183 dpm
  dpm/mg 2DG: 100.3 dpm/mg and 79.2 dpm/mg and 85.8 dpm/mg
  dpm/mg Total: 286.0 dpm/mg and 229.5 dpm/mg and 201.0 dpm/mg
  Ratio: 4.96 and 4.02 and 3.08
C57BL/6 mice [3]; Soleus, 30 mg/kg po, 60 min during ip GTT
  count (dpm) Total: 572 dpm and 459 dpm and 402 dpm
C57BL/6 mice [3]; Soleus, 2-DG uptake = Total minus 2DG
  dpm/mg 2DGP: 185.7 dpm/mg and 150.3 dpm/mg and 115.2 dpm/mg
C57BL/6 mice [3]; WAT
  count (dpm) 2DG: 697 dpm and 877 dpm and 734 dpm
  count (dpm) Total: 1450 dpm and 1799 dpm and 1511 dpm
  dpm/mg 2DG: 34.9 dpm/mg and 43.9 dpm/mg and 36.7 dpm/mg
  dpm/mg 2DGP: 13.5 dpm/mg and 16.1 dpm/mg and 13.7 dpm/mg
  dpm/mg Total: 48.3 dpm/mg and 60.0 dpm/mg and 50.4 dpm/mg
  Ratio: 0.99 and 1.18 and 1.00
C57BL/6 mice [3]; soleus and gastrocnemius muscles, ip GTT, 30 mg kg−1
  uptake of [3H]-2-DG (in words): significant increase
